Results from patent US20240103011A1, “LIQUID BIOPSY YIELD ENHANCEMENT” (priority 2021, published 2024).
Read-outs that look alike come from different tables or passages of the source.

Legend:
Colon Cancer = conditions: Colon Cancer/Relapse
Protocol: (§1) A sample from the subjects is collected at the time of diagnosis (“baseline sample”) and analyzed for tumor mutational burden (TMB) and microsatellite instability (MSI). Subjects are then administered a single dose of plerixafor (10-20 mg), a single dose of motixafortide (0.5-2 mg/kg), a single dose of MGTA-145 (0.0075-0.3 mg/kg), or a single dose of MGTA-145 (0.0075-0.3 mg/kg) in combination with a single dose of plerixafor (0.24 mg/kg), and blood sample collected 1-72 hours later. This blood sample (“LBYE+ sample”) is analyzed for TMB and MSI.
(§2) The change/difference of biomarker detected in the LBYE+ sample and the baseline sample is used by a clinician to predict treatment response and/or make treatment decision.

T cell lymphoma = conditions: T cell lymphoma/Partial remission
Protocol: as §1, §2

HSC = conditions: in vivo; cited from earlier work

c1cc(CN2CCCNCCNCCCNCC2)ccc1CN1CCCNCCNCCCNCC1 [Plerixafor, 1-{[4-(1,4,8,11-tetrazacyclotetradec-1-ylmethyl)phenyl]methyl}-1,4,8,11-tetrazacyclotetradecane]
VAF, LBYE+ Sample Status (Colon Cancer; APC, baseline 7.80%): 7.30% | VAF, LBYE+ Sample Status (Colon Cancer; TP53, baseline 6.30%): 6.30% | TMB, LBYE+ Sample Status (Colon Cancer; baseline 0.5 m/MB): 1.1 m/MB | MSI, LBYE+ Sample Status (Colon Cancer; baseline Stable): Stable | VAF, LBYE+ Sample Status (T cell lymphoma; TET2, baseline 23.80%): 20.20% | Genomic variants, LBYE+ Sample Status (T cell lymphoma; after intervening agent, baseline TET2): TET2 | TMB, LBYE+ Sample Status (T cell lymphoma; baseline 0.4 m/MB): 0.5 m/MB | MSI, LBYE+ Sample Status (T cell lymphoma; baseline Stable): Stable | HSC mobilization (HSC): rapidly mobilize HSC within hours
